According to patent US20260042801A1, “COMPOSITIONS AND METHODS FOR DYE-BOUND CYCLIZED PEPTIDES FOR MEDICAL USE” (The Texas A&M University System, priority 2022, published 2026):

Legend:
[1] = Blood-brain and blood-spinal cord barrier penetration after IP administration; assay type: in vivo; conditions: uninjured mouse, IP 60 mg/kg, 1 hour, intrinsic fluorescence
Description: FIG. 6: 5c(i) penetrates the blood-brain and -spinal cord barriers. 4-month-old uninjured female mouse was IP administered 60 mg/kg 5c(i). The mouse was euthanized 1 hour after 5c(i) administration and perfused with PFA. The spinal cord was dissected and sectioned sagittal at 25 μm and stained with NeuN and DAPI. The brain was dissected and sectioned coronal at 50 μm and stained with GFAP and DAPI. 5c(i) was identified through its intrinsic fluorescence. Scale bar=100 μm.
This is highly significant as most drugs cannot penetrate the central nervous system (CNS), resulting in very costly late-stage failures in CNS drug development^94. 5c(i) therefore in specific embodiments can cross the BBB and target the brain, such as through IP administration, for indications relating to brain function, such as AD and stroke. 5c(i) has even higher potential for penetrating the CNS after SCI when permeability is increased^95-97.

[2] = tested on: cells lacking TrkB/TrkC receptors; assay: Binding and activity in Trk negative cells (HEK293 and NIH/3T3); conditions: non-transfected HEK293 and NIH/3T3
Description: FIG. 2: 5c(i) binds to TrkB and TrkC receptors. Transfected cell lines that are Trk positive cells (TrkB-HEK293 and TrkC-NIH/3T3) and non-transfected cell lines that are Trk negative cells (HEK293 and NIH/3T3) were seeded approximately 2,000 cells/well in a 96-well plate and incubated for 24 hours. The cells were treated with a serial dilution of compound (0, 10, 25, 50, 100, 200, 500, and 1000 nM) in serum-free media (SFM) with and without A) 0.6 nM of BDNF (TrkB-HEK293 and HEK293) and B) 0.2 nM of NT-3 (TrkC-NIH/3T3 and NIH/3T3) for 2.5 h. After that, the cells were washed with PBS once to remove unbound compounds and dissolved in 1% (w/v) aqueous sodium dodecyl sulfate. Cell-associated fluorescence was then determined by measuring the emission of the resulting solution upon λex (540/25 nm) and λem (620/40 nm) using Agilent BioTek Synergy H4 Hybrid Microplate Reader. Kd was calculated by GraphPad Prism 9 using Binding saturation (One site—Specific binding).
Transfected cell lines that are Trk positive cells (TrkA-HeLa, TrkB-HEK293, and TrkC-NIH/3T3) and non-transfected cell lines that are Trk negative cells (HeLa, HEK293, and NIH/3T3) were seeded at 2,000 cells/well in a 96-well plate (0.32 cm^2 growth area) and incubated inside a 5% CO2 incubator at 37° C. for 24 hours. […] The dissociation constant (Kd) was calculated using binding saturation (One site—Specific binding).

[3] = tested on: adult cortical neurons on astrocytes; assay: Neurons plated on 5c(i)-pretreated astrocytes; assay type: cell-based, mouse; conditions: astrocytes cultured with 5c(i) 2 days, 5c(i) removed, neurons 2DIV
Description: FIGS. 4A-4D: 5c(i) induces Synapsin I production and reduces C3 and GSK-3s expression from astrocytes promoting neuron survival and neurite growth. Primary adult cortical astrocytes from 6-month-old male mice were incubated with 5 μM 5c(i) for 3 days. Graph represents mean±SEM of percent change in fluorescent intensity (Synapsin I and C3) or chemiluminescence (GSK-3β) relative to Vehicle (4A and 4D). Images represent the 4B) Vehicle and 4C) 5 μM 5c(i) treated groups stained with Synapsin I and DAPI. D) Cortical astrocytes from 6-month-old male mice were plated and treated with 5c(i) or Vehicle for 2 days. Cells were then washed and cortical neurons from 6-month-old male mice were added on top of the astrocytes. […] Scale bar=50 μm.
To determine if 5c(i) can modulate astrocytes, adult astrocytes from 6-month-old male mice were treated with 5c(i) for 3 days and stained with Synapsin I and C3 to measure changes in fluorescent intensity or western blot was conducted on the cell lysate to assess changes in GSK-3β expression (FIG. 4). […] To determine if 5c(i) treated astrocytes can directly benefit neuronal recovery, astrocytes were cultured with 5c(i) for 2 days before removing 5c(i) from the culture and plating adult neurons on top of the astrocytes for 2DIV, resulting in increased neuron survival and neurite growth. […]

In the case of “C-DIRG-C BODIPY® (fluorescent dye) [5c(i)]”, the “penetration of blood-brain barrier (BBB)” value [1] is reported as “easily penetrate”, the “penetration of blood-spinal cord barrier (BSCB)” value [1] is reported as “easily penetrate” and the “binding and biological activity in cells lacking TrkB/TrkC receptors” value [2] is reported as “lack of binding and biological activity”. For the same substance, the “neurite growth on pretreated astrocytes” value [3] was “increased” and the “neuron survival on pretreated astrocytes” value [3] was “increased”.
